The text below walks through data of patent publication US20250389714A1, “PHARMACEUTICAL COMPOSITION FOR TREATING DISEASES RELATED TO TAUOPATHY” (SEOUL NATIONAL UNIVERSITY R&DB FOUNDATION, priority 2021, published 2025).

Entries after “also recorded” stand apart in the source; their conditions may differ.

Test [1] relates to RAGE-expressing SH-SY5Y cells. Nature of the test: Tau infection (intracellular DyLight 488-tau oligomers) in RAGE-expressing SH-SY5Y cells. To be noted: increasing concentrations of antagonist, 4 hours, 500 nM DyLight 488-tau oligomers. The class given is cell-based, human. On the procedure: (right) for 4 hours in the presence of 500 nM DyLight 488-tau or 125 nM FITC-Aβ42 oligomers. Fluorescence images were acquired, and intracellular DyLight 488 and FITC intensities were measured. The data were presented as mean±SEM (n=4).

The test system of another test is rTg4510 mice. Nature of the test: Behavioral tests (Y-maze, novel object recognition, passive avoidance) in rTg4510 mice. It is filed as in vivo, mouse. The settings on record: 1 mg/kg/day intraperitoneally, daily for 2.5 months from 2 months of age; tests at 4.5 months.
For test [2], the system named is primary cortical neurons or hippocampal neurons. Nature of the test: Tau infection assay in primary cultured neurons. To be noted: 500 nM DyLight 488-tau oligomers, 24 hours.
The next test addresses T1, RAGE (Homo sapiens, UniProt Q15109).
T1 construct: RFP-tagged RAGE full-length (FL) or cytoplasmic domain deletion mutants (ΔCyto); expressed in transfected cells; host or cells: SH-SY5Y human neuroblastoma cells
Nature of the test: Cell binding assay and calculation of dissociation constant (Kd) for RAGE binding. The settings on record: monomer equivalents of total Aβ42 or total tau; biotin-labeled oligomers, RAGE-overexpressing SH-SY5Y cells, 2 hours. How it is done: FIG. 2c is a graph showing the results of analyzing RAGE binding affinities of tau oligomers (oTau) and Aβ42 oligomers (oAβ42). RAGE-overexpressing SH-SY5Y cells were treated with biotin-tau or Aβ42 oligomers for 2 hours, and the cell-bound biotin signal intensities in FIG. 12a were measured. The data were presented as mean±SEM (n=3-5), and the Kd of binding values were obtained from nonlinear regression analysis of saturated binding.
The purified tau monomers of the present invention were biotinylated using the Ez-Link Sulfo-NHS-LC-Biotinylation kit (Thermo Scientific) and then fibrillated as described above to form oligomers and fibrils. SH-SY5Y cells were transfected with RAGE cDNA for 24 hours and incubated with biotin-tau protein for 2 hours. Primary cortical neurons from WT and Rage KO mice (DIV 7) were then incubated with various concentrations of biotin-tau oligomers for 24 hours to estimate the Kd value for tau binding to RAGE. Cells were washed with Tris-buffered saline (TBS) and fixed with 4% paraformaldehyde for 20 min. The cells were then blocked with 10% FBS and 0.1% Triton X-100 in TBS for 1 hour and incubated with streptavidin-alkaline phosphatase conjugate (1:2000, Roche) at 4° C. for 16 hours. After washing with TBS, bound biotin-tau was visualized for 10 min using the […] liquid substrate system (Sigma-Aldrich). Images were acquired using INCell Analyzer 2000, and cell-bound biotin signals were measured using Image J. Kd values estimated for RAGE-binding were obtained from nonlinear regression analysis of saturated binding using Prism (GraphPad Software).

In test [3] the target is human RAGE (receptor for advanced glycation end products), full-length, overexpressed in SH-SY5Y cells (human) (UniProt Q15109). Nature of the test: cell-based or functional assay.
Sequence of human RAGE (receptor for advanced glycation end products), full-length, overexpressed in SH-SY5Y cells (human) (Q15109 23-404): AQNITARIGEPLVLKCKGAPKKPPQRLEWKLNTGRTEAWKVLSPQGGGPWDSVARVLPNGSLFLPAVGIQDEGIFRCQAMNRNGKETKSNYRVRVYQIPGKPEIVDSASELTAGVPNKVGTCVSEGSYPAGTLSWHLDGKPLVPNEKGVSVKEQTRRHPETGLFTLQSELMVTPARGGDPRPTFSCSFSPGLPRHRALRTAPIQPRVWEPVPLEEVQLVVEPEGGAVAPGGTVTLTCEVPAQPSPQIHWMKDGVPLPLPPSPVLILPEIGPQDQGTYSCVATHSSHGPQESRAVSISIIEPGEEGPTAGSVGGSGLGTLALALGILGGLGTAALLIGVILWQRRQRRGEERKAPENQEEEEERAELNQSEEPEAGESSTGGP
The test system of test [4] is RAGE-overexpressing SH-SY5Y cells. Nature of the test: Competition of tau oligomers and Aβ42 oligomers for uptake in RAGE-overexpressing SH-SY5Y cells. The class given is cell-based, human. To be noted: increasing concentrations of DyLight 594-tau oligomers with 125 nM FITC-Aβ42 oligomers, 2 hours. How it is done:
FIG. 12b is a graph showing the results of analyzing […] and FITC intensities in RAGE-overexpressing SH-SY5Y cells. The cells were treated with increasing concentrations of DyLight 594-tau oligomers (red) in the presence of 125 nM FITC-Aβ42 oligomers (green) for 2 hours. Fluorescence images were acquired, and intracellular DyLight 594 and FITC intensities were measured. The data were presented as mean±SEM (n=3).

In test [5] the target is T2, high molecular weight (HMW, 10-20 units) tau oligomers of 6xHis tagged human 0N4R tau (human, UniProt P10636-6 1-383, biotinylated or labelled with DyLight 488, depending on the assay; sites not stated).
T2 construct: also called HMW tau oligomers; not shown: 6xHis tag from the pET-His vector
T2 sequence (P10636 other isoform, or with tags, fused parts or gaps): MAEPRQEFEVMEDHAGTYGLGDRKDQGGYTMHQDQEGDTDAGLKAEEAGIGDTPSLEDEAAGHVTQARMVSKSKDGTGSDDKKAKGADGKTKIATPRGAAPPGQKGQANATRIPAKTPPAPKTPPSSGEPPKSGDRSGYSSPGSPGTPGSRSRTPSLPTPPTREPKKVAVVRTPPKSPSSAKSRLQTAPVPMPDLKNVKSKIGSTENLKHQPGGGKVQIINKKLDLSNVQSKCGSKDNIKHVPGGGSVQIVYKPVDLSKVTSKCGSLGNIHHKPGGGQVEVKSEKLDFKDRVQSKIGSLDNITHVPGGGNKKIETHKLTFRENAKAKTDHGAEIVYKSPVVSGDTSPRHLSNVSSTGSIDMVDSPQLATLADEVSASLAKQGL
Nature of the test: cell binding assay: biotin-labelled HMW tau oligomers for 24 h on primary cortical neurons, streptavidin-alkaline phosphatase, BCIP/NBT; nonlinear regression of saturation binding; dashed ΔRage curve, whose points equal WT minus Rage KO; concentration as tau monomer equivalent.

Test [6] has as its target T3, low molecular weight (LMW, 2-4 units) tau oligomers of 6xHis tagged human 0N4R tau (human, UniProt P10636-6 1-383, biotinylated or labelled with DyLight 488, depending on the assay; sites not stated).
T3 construct: also called LMW tau oligomers; not shown: 6xHis tag from the pET-His vector
Nature of the test: cell binding assay: biotin-labelled LMW tau oligomers for 24 h on primary cortical neurons, streptavidin-alkaline phosphatase, BCIP/NBT; nonlinear regression of saturation binding; dashed ΔRage curve, whose points equal WT minus Rage KO; concentration as tau monomer equivalent.

T1 sequence (Q15109 23-404): as the sequence (Q15109 23-404) above
T3 sequence (P10636 other isoform, or with tags, fused parts or gaps): as the sequence (P10636 other isoform, or with tags, fused parts or gaps) above

As to `O=C(c1ccc(Cl)cc1)N(Cc1ccccc1)C1CCCCC1` [FPS-ZM1], in test [1], the “tau infection into RAGE-expressing SH-SY5Y cells” value is given as “inhibited tau infection”. Also, the “cognitive function (spatial and working memory) of rTg4510 mice” value in the test with rTg4510 mice is “significantly alleviated cognitive impairment; also recorded: significant retention of spatial and working memory; also recorded: ameliorated the behavioral impairment”. Also, the “tau infection into neurons” value in test [2] (WT cortical neurons, 1 μM antagonist) is recorded as “inhibited tau infection; also recorded: reduces neuronal tau infection”.

Regarding “Aβ42 oligomers: oligomers prepared from synthetic biotin- or FITC-labeled Aβ42 peptide (rPeptide)”, in the test with RAGE, the Kd was 17 nM.

Take “DyLight 488-tau aggregates (His-tagged human tau aggregated with heparin, used in the cDNA screen) (from UniProt P10636 1-383) (ligand)”: in test [3], the Intracellular DyLight 488 Intensities (AU) was determined as 9.55 AU.

Take “HMW tau oligomers: high molecular weight tau oligomers (10-20 units) of recombinant human 0N4R tau”: the Kd in the test with RAGE was 51 nM.

Consider “LMW tau oligomers: low molecular weight tau oligomers (2-4 units) of recombinant human 0N4R tau”, for which the Kd with RAGE is 205 nM.

For the molecule heparin, in test [2] (Rage KO neurons, 15 U/ml heparin), the “tau oligomer transfection into Rage KO neurons” value is “efficiently blocked”. Moreover, in test [2] (WT neurons, 15 U/ml heparin), the “neuronal uptake of tau oligomers into WT neurons” value is listed as “reduced neuronal uptake of tau oligomers”.

As to “tau oligomers: oligomers of recombinant 6×His tagged human 0N4R tau formed with heparin”, in test [4], the “intracellular transfection of Aβ42 oligomers” value is recorded as “efficiently reduced the intracellular transfection of Aβ42 oligomers”.

B1: mouse RAGE, endogenous, on primary cultured WT mouse neurons (against Rage KO neurons) (receptor, UniProt Q62151 23-402, looked up)
chain: GQNITARIGEPLVLSCKGAPKKPPQQLEWKLNTGRTEAWKVLSPQGGPWDSVARILPNGSLLLPATGIVDEGTFRCRATNRRGKEVKSNYRVRVYQIPGKPEIVDPASELTASVPNKVGTCVSEGSYPAGTLSWHLDGKLLIPDGKETLVKEETRRHPETGLFTLRSELTVIPTQGGTHPTFSCSFSLGLPRRRPLNTAPIQLRVREPGPPEGIQLLVEPEGGIVAPGGTVTLTCAISAQPPPQVHWIKDGAPLPLAPSPVLLLPEVGHEDEGTYSCVATHPSHGPQESPPVSIRVTETGDEGPAEGSVGESGLGTLALALGILGGLGVVALLVGAILWRKRQPRREERKAPESQEDEEERAELNQSEEAEMPENGAGGP
notes: whole, on cells
Regarding B1, the figures for the Kd in test [5] and in test [6] were 25 nM and 43.5 nM, respectively.

Broadly, the Kd is the equilibrium constant for the complex coming apart.
